Our source for the Ratio, Kd and ΔTm values is ChEMBL document CHEMBL3399975, “Rational design of specific binding hairpin Py-Im polyamides targeting human telomere sequences” (Bioorg Med Chem, 2015).

Molecules are shown by their SMILES.

Assay [1] in a line: Selectivity ratio of KD for 5'-Biotin-GGTTAGAGTTAGGTTTTCCTAACTCTAACC-3' (unknown origin) to KD for human telomeric sequence.
The nature of assay [2]: Selectivity ratio of KD for 5'-Biotin-GGTTAAGGTTAGGTTTTCCTAACCTTAACC-3' (unknown origin) to KD for human telomeric sequence.
A short description of assay [3]: Binding affinity to human telomeric sequence in HBS-EP buffer at pH 7.4 at 25 degC by SPR analysis. For orientation: SPR reads the build-up and loss of mass on a sensor chip optically.
Assay [4] in a line: Binding affinity to 5'-Biotin-GGTTAAGGTTAGGTTTTCCTAACCTTAACC-3' (unknown origin) in HBS-EP buffer at pH 7.4 at 25 degC by SPR analysis.
The species named for another assay is Homo sapiens. Kind of assay: Binding affinity to human telomeric sequence assessed as change in melting temperature at pH 7 by UV-Vis spectrophotometry.
Assay [5] can be described thus: Binding affinity to 5'-Biotin-GGTTAGAGTTAGGTTTTCCTAACTCTAACC-3' (unknown origin) in HBS-EP buffer at pH 7.4 at 25 degC by SPR analysis.
Assay [6] can be described thus: Binding affinity to 5'-GGTTAAGGTTAGG-3'/3'-CCAATTCCAATCC-5' (unknown origin) assessed as change in melting temperature at pH 7 by UV-Vis spectrophotometry.
Assay [7] can be described thus: Binding affinity to 5'-GGTTAGAGTTAGG-3'/3'-CCAATCTCAATCC-5' (unknown origin) assessed as change in melting temperature at pH 7 by UV-Vis spectrophotometry.

The term Kd denotes the constant that tells how readily two partners part at equilibrium. Higher therefore signals a looser complex. As usually defined, the ΔTm is the change in melting temperature against a reference sample. In the case of `CN(CCCN)CCCNC(=O)CCNC(=O)c1cc(NC(=O)c2cc(NC(=O)c3cc(NC(=O)c4cc(NC(=O)[C@H](N)CCNC(=O)c5cc(NC(=O)c6nc(NC(=O)c7nc(NC(=O)c8nccn8C)cn7C)cn6C)cn5C)cn4C)cn3C)cn2C)cn1C`, the Ratio in assay [1] was 32.8; in assay [2] it was 13.3. For the same compound, the Kd was 1.56 nM in assay [3], 20.7 nM in assay [4] and 51.1 nM in assay [5]. Moreover, the results for the ΔTm (in the assay listed under Homo sapiens; in assay [6]; in assay [7]) were 27.7 °C, 24.8 °C and 18.3 °C, respectively.
Turning to `CN(CCCNC(=O)CCNC(=O)c1nc(NC(=O)c2cc(NC(=O)c3cc(NC(=O)c4cc(NC(=O)[C@@H](CCNC(=O)c5cc(NC(=O)c6nc(NC(=O)c7nccn7C)cn6C)cn5C)NC(=O)COCCOCCNC(=O)c5nc(NC(=O)c6cc(NC(=O)c7cc(NC(=O)c8cc(NC(=O)[C@H](N)CCNC(=O)c9cc(NC(=O)c%10nc(NC(=O)c%11nccn%11C)cn%10C)cn9C)cn8C)cn7C)cn6C)cn5C)cn4C)cn3C)cn2C)cn1C)CCCNS(=O)(=O)c1ccc(C2=c3cc4c5c(c3Oc3c2cc2c6c3CCCN6CCC2)CCC[N+]=5CCC4)c(S(=O)(=O)[O-])c1`, the Kd in assay [3] worked out at 0.93 nM.
With `CN(CCCN)CCCNC(=O)CCNC(=O)c1nc(NC(=O)c2cc(NC(=O)c3cc(NC(=O)c4cc(NC(=O)[C@H](N)CCNC(=O)c5cc(NC(=O)c6nc(NC(=O)c7nccn7C)cn6C)cn5C)cn4C)cn3C)cn2C)cn1C`, the Ratio in assay [1] was 17.3; in assay [2] it was 0.36. Further, the Kd in assay [3] amounted to 1.76 nM; in assay [4], 0.627 nM; in assay [5], 30.4 nM. The ΔTm in the assay filed under Homo sapiens amounted to 27.8 °C; in assay [6], 29.3 °C; in assay [7], 22.4 °C.
For `CN(CCCN)CCCNC(=O)CCNC(=O)c1cc(NC(=O)c2cc(NC(=O)c3cc(NC(=O)c4cc(NC(=O)[C@H](N)CCNC(=O)c5cc(NC(=O)c6nc(NC(=O)c7nccn7C)cn6C)cn5C)cn4C)cn3C)cn2C)cn1C`, the Ratio turned out to be 24.6 in assay [1] and 0.013 in assay [2]. Also, the dissociation constant Kd was 0.431 nM in assay [3], 0.00561 nM in assay [4] and 10.6 nM in assay [5]. In addition, the ΔTm amounted to 27.4 °C in the assay filed under Homo sapiens, 31.6 °C in assay [6] and 21.6 °C in assay [7].
